Paper PMC8243516, “Inhibition of lysosomal phospholipase A2 predicts drug-induced phospholipidosis” (Journal of Lipid Research, 2021)
“And” between values parts separate entries of the source, which are not always exact repeats. Identical values can stand only once. Like-named read-outs stand apart in the source and are kept apart here.

How the values were obtained:
[1] = target: T1, LPLA2 (Mus musculus, UniProt Q8VEB4); experiment: LPLA2 thermal stability measurement (SYPRO Orange Tm); type: binding
T1 construct: purchased Proteos Inc. (Kalamazoo, MI)
T1 sequence (Q8VEB4 34-412): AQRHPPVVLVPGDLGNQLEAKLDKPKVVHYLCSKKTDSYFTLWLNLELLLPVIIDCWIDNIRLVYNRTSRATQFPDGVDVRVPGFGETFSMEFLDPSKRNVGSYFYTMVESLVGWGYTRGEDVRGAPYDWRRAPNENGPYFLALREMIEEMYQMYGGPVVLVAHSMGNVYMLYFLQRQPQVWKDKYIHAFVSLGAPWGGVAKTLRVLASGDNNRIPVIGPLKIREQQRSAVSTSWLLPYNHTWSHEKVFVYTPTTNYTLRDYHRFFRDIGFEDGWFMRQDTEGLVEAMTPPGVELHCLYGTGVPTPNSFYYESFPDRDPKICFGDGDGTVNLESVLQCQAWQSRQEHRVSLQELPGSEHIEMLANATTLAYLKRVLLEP

[2] = target: T2, recombinant mouse LPLA2 (PLA2G15) (Mus musculus, UniProt Q8VEB4); experiment: Transacylase activity of LPLA2 (1-O-acyl-N-acetylsphingosine synthase, cell-free liposome assay); type: biochemical; settings: for IC50: 1-O-acyl N-acetylsphingosine synthase activity, pH 4.5, DOPC/sulfatide liposomes, read-out: LPLA2 IC50; for LPLA2 inhibition (in words): acyl transferase activity
T2 construct: purchased Proteos Inc. (Kalamazoo, MI)
T2 sequence (Q8VEB4 34-412): T1 sequence (Q8VEB4 34-412)

[3] = ref Pubchem and chEMBL databases; cited from earlier work
[4] = test system: phospholipidosis; settings: phospholipidosis reported in vitro; Refs of Table 1; cited from earlier work

| Compound | (ΔTm)c-(ΔTm)d, difference in melting temperature of LPLA2 alone or in the presence of drug ([1]; N=3 ± SD) | IC50 [2] [µM] | pKa (basic) [3] | In Vitro PLD [4] | LPLA2 inhibition (in words) [2] | (ΔTm)c-(ΔTm)d, difference in melting temperature of LPLA2 alone or in the presence of drug [1] [°C] |
| --- | --- | --- | --- | --- | --- | --- |
| C=CCc1ccccc1OCC(O)CNC(C)C (stereo not drawn) [Alprenolol, 1-(o-allylphenoxy)-3-(isopropylamino)-2-propanol] | -1.00 ± 0.1 °C | 173 | 9.67 | Yes | – | – |
| CCN(CCCc1ccccc1)CCCc1ccccc1 [Alverine, ethyl bis (3-phenylpropyl)amine] | 0.14 ± 0.1 °C | 40 | 10.44 | Yes | – | – |
| CCC(C)(C)c1ccc(CC(C)CN2C[C@@H](C)O[C@@H](C)C2)cc1 (stereo partly drawn) [Amorolfine, 2R,6S-2,6-dimethyl-4-(2-{[4-(2-methylbutan-2-yl)phenyl]methyl}propyl)morpholine] | -0.30 ± 0.1 °C | 41.5 | 8.49 | Yes | – | – |
| CC(C)NCC(O)COc1ccc(CCOCC2CC2)cc1 (stereo not drawn) [Betaxolol, 1-{4-[2-(cyclopropylmethoxy)ethyl]phenoxy}-3-[(propan-2-yl)amino]propan-2-ol] | -1.29 ± 0.9 °C | – | 9.67 | Yes | no inhibitory activity | – |
| CN(Cc1cc(Br)cc(Br)c1N)C1CCCCC1.Cl [Bromhexine, 2-amino-3,5-dibromo-N-cyclohexyl-N-methylbenzylamine hydrochloride] | 1.26 ± 0.2 °C | 30.8 | 9.32 | Yes | – | – |
| CN(C)CCC(c1ccc(Cl)cc1)c1ccccn1 (stereo not drawn) [Chlorpheniramine, [3-(4-chlorophenyl)-3-(pyridin-2-yl)propyl] dimethylamine] | 0.34 ± 0.0 °C | 147 | 9.47 | Yes | – | – |
| CN(C)CC/C=C1/c2ccccc2Sc2ccc(Cl)cc21 [Chlorprothixene] | -2.0 ± 0.1 °C | 7.78 | 9.76 | Yes | – | – |
| Clc1ccc(C(OCCN2CCCCC2)c2ccccc2)cc1 (stereo not drawn) [Cloperastin, 1-{2-[(4-chlorophenyl) (phenyl)methoxy]ethyl} piperidine] | 0 °C | 40.9 | 8.82 | Yes | – | – |
| C[C@]12C[C@H](O)[C@H]3[C@@H](CCC4=CC(=O)CC[C@@]43C)[C@@H]1CC[C@@H]2C(=O)CO [Corticosterone, (1S,2R,10S,11S,14S,15S,17S)-17-hydroxy-14-(2-hydroxyacetyl)-2,15-dimethyltetracyclo[8.7.0.0^2,^7.0^11,^15]heptadec-6-en-5-one] | 0 °C | 163 | -0.26 | Yes | – | – |
| COc1cc2nc(N3CCN(C(=O)c4ccco4)C4CCCCC43)nc(N)c2cc1OC (stereo not drawn) [Cyclazosin, 1-(4-amino-6,7-dimethoxy-2-quinazolinyl)-4-(2-furanylcarbonyl) decahydroquinoxaline] | 0.18 ± 0.1 °C | 30.8 | 9.89 | Yes | – | – |
| CN(C)CCOC(=O)C(c1ccccc1)C1(O)CCCC1 (stereo not drawn) [Cyclopentolate, 2-(dimethylamino)ethyl 2-(1-hydroxycyclopentyl)-2-phenylacetate] | 0.87 ± 0.6 °C | 32.2 | 8.42 | Yes | – | – |
| c1ccc2c(c1)CCc1ccccc1C2 [Dibenzosuberane, 10,11-dihydro-5H-dibenzo [a, d] cycloheptene-833-48-7] | -1.94 ± 0.0 °C | 346 | 10 | Yes | – | – |
| CCN(CC)CCOC(=O)C(c1ccccc1)C1CCCCC1 (stereo not drawn) [Drofenine, hexahydroadiphenine] | 1.50 ± 0.1 °C | 7.29 | 9.21 | Yes | – | – |
| CCOC(=O)c1cncn1[C@H](C)c1ccccc1 [Etomidate, ethyl 1-[(1R)-1-phenylethyl]-1H-imidazole-5-carboxylate] | -0.76 ± 0.3 °C | 1150 | 4.54 | Yes | – | – |
| O=C(COc1ccc(Cl)cc1)N1CCN(Cc2ccc3c(c2)OCO3)CC1 [Fipexide, 1-(2-[4-chlorophenoxy]acetyl)-4-(3,4-methylenedioxybenzyl)piperazine] | -0.17 ± 0.0 °C | 17.2 | 6.09 | Yes | – | – |
| O=C(O)c1ccccc1Nc1cccc(C(F)(F)F)c1 [Flufenamic acid, 2-{[3-(trifluoromethyl)phenyl]amino}benzoic acid] | -0.62 ± 0.3 °C | 178 | -2.1 | Yes | – | – |
| CC(=O)N1CCN(c2ccc(OCC3COC(Cn4ccnc4)(c4ccc(Cl)cc4Cl)O3)cc2)CC1 (stereo not drawn) [Ketoconazole, 1-[4-(4-{[2-(2,4-dichlorophenyl)-2-(1H-imidazole-1-ylmethyl)-1,3-dioxolan-4-yl]methoxy}phenyl)piperazin-1-yl]ethan-1-one] | 0.42 ± 0.8 °C | 39 | 6.75 | Yes | – | – |
| COC(=O)C1=C(C)NC(C)=C(C(=O)OC(C)(C)CN(C)CCC(c2ccccc2)c2ccccc2)C1c1cccc([N+](=O)[O-])c1 (stereo not drawn) [Lercanidipine, 3-{1-[(3,3-diphenylpropyl)(methyl)amino]-2-methylpropan-2-yl} 5-methyl 2,6-dimethyl-4-(3-nitrophenyl)-1,4-dihydropyridine-3,5-dicarboxylate] | 0.21 ± 0.3 °C | 37.2 | 9.36 | Yes | – | – |
| CN(CCCN1c2ccccc2CCc2ccccc21)CC(=O)c1ccc(Cl)cc1 [Lofepramine, 2-[(3-{2-azatricyclo[9.4.0.0ˆ{3,8}]pentadeca-1(15),3,5,7,11,13-hexaen-2-yl}propyl) (methyl)amino]-1-(4-chlorophenyl) ethan-1-one] | 0 °C | 13.2 | 6.53 | Yes | – | – |
| OC[C@@H](O)[C@@H](O)[C@H](O)[C@H](O)CO [Mannitol, (2R,3R,4R,5R)-hexane-1,2,3,4,5,6-hexol] | 1.0 ± 0.0 °C | 160 | 12.3 | Yes | – | – |
| COc1ccnc(C[S+]([O-])c2nc3ccc(OC(F)F)cc3[nH]2)c1OC (stereo not drawn) [Pantoprazole, 6-(difluoromethoxy)-2-[(3,4-dimethoxypyridin-2-yl)methanesulfinyl] -1H-1,3-benzodiazole] | 0.25 ± 0.1 °C | 6.23 | 3.55 | Yes | – | – |
| O=c1[nH]c2ccccc2n1C1CCN(CCCC(c2ccc(F)cc2)c2ccc(F)cc2)CC1 [Pimozide, 1-{1-[4,4-bis(4-fluorophenyl)butyl]piperidin-4-yl}-2,3-dihydro-1H-1,3-benzodiazol-2-one] | – | 10.6 | 8.38 | Yes | – | 0.26 ± 0.0 |
| Cc1nc2ccccn2c(=O)c1CCN1CCC(C(=O)c2ccc(F)cc2)CC1 [Pirenperone, 3-[2-[4-(4-Fluorobenzoyl)-1-piperidinyl]ethyl]-2-methyl-4H-pyrido-[1,2-a] pyrimidin-4-one] | 0.79 ± 0.0 °C and 0.79 ± 0.1 °C | 233 | 8.02 | Yes | – | – |
| OC(CCN1CCCCC1)(c1ccccc1)c1ccccc1 [Pridinol, 1,1-diphenyl-3-(piperidin-1-yl)propan-1-ol] | 0 °C | 285 | 9.34 | Yes | – | – |
| CC(=O)[C@H]1CC[C@H]2[C@@H]3CCC4=CC(=O)CC[C@]4(C)[C@H]3CC[C@]12C [Progesterone, (1S,3aS,3bS,9aR,9bS,11aS)-1-acetyl-9a,11a-dimethyl-1H,2H,3H, 3aH,3bH,4H,5H, 7H,8H,9H,9 aH,9bH, 10H,11H,11aH-cyclopenta [a] phenanthren-7-one] | 0.61 ± 0.1 °C | 10.5 | -4.8 | Yes | – | – |
| CCCOc1ccc(C(=O)OCCN(CC)CC)cc1N [Proparacaine, 2-(diethylamino)ethyl 3-amino-4-propoxybenzoate] | 0 °C | 2470 | 8.56 | Yes | millimolar concentrations | – |
